Converted amounts (≈) assume the structure as drawn.
Legend:
[1] = test system: Candida albicans 73/079; assay: Minimum Inhibitory Concentration (MIC) by broth dilution in microtitre tray; assay type: cell-based; settings: inoculum 10^5 cells/ml, 37° C.
Method: (§1) The Minimum Inhibitory Concentration (MIC) was determined by diluting the test compound in a broth medium in a microtitre tray. The organisms, which had been grown previously in a broth medium, were diluted and added to the wells to provide a final inoculum of approximately 10^5 colony-formingunits per well. The trays were incubated at 37° C. and the turbidity of each well noted at intervals. The MIC was taken as the lowest concentration (in μg/ml) which prevented significant growth. |Minimum Inhibitory Concentration (μg/ml) |(determined after 2 and 3 days incubation) | *Inoculum 10^5 cells/ml | YNB: Yeast Nitrogen Base Broth | SAB: Sabouraud's Dextrose Broth.

[2] = test system: Candida parapsilosis 937 A; assay: as above; assay type: cell-based; settings: inoculum 10^5 cells/ml, 37° C.
Method: as §1

[3] = 48 h, day 2, YNB (Yeast Nitrogen Base Broth)
[4] = 72 h, day 3, YNB (Yeast Nitrogen Base Broth)

C[C@@H]1[C@H](O)[C@@H](C)/C=C/C=C/C=C/C=C/C=C/C=C/C=C/[C@H](O[C@@H]2O[C@H](C)[C@@H](O)[C@H](N)[C@@H]2O)C[C@@H]2O[C@](O)(C[C@@H](O)C[C@@H](O)[C@H](O)CC[C@@H](O)C[C@@H](O)CC(=O)O[C@H]1C)C[C@H](O)[C@H]2CO [Example 4, 16-Decarboxy-16-hydroxymethylamohotericin B] showed an MIC [1, 3] of 1 µg/mL (≈ 1.1 µM), an MIC [1, 4] of 2 µg/mL (≈ 2.2 µM) and an MIC ([1]; Candida albicans, 73/079, 48 h, day 2, SAB (Sabouraud's Dextrose Broth)) of 1 µg/mL (≈ 1.1 µM). For the same compound, the MIC ([1]; Candida albicans, 73/079, 72 h, day 3, SAB (Sabouraud's Dextrose Broth)) was 1 µg/mL (≈ 1.1 µM), the MIC ([2]; 937A, 48 h, day 2, SAB (Sabouraud's Dextrose Broth)) was 1 µg/mL (≈ 1.1 µM) and the MIC ([2]; 937A, 72 h, day 3, SAB (Sabouraud's Dextrose Broth)) was 2 µg/mL (≈ 2.2 µM). For the same compound, the MIC [2, 3] was 8 µg/mL (≈ 8.79 µM) and the MIC [2, 4] was 8 µg/mL (≈ 8.79 µM).
